Tested on: Pro-N-cadherin-positive and pro-N-cadherin-negative SUM159 sorted cells
Assay: Clonogenic assay on pro-N-cadherin-sorted cells
Assay type: cell-based
Details: docetaxel 50, 75, 100, 150 nM for 48 h; pro-N-cadherin positive vs negative population
Protocol: Pro-N-cadherin-positive and pro-N-cadherin-negative SUM159 sorted cells were exposed to the indicated docetaxel concentrations and surviving fraction was determined in a clonogenic assay. Mean# colonies from three wells (+/−SEM) was determined for each cell population.
Pro-N-cadherin-positive and Pro-N-cadherin-negative populations were sorted from untreated SUM159 cells, seeded into 6 well plates ([…]) at varying cell densities, and incubated at 37° C., 5% C02 overnight. The next day, culture medium was removed and treatments were added [no treatment, Docetaxel (50 nM, 75 nM, 100 nM and 150 nM]. After 48 h, treatments were removed, cells were washed with HBSS, and fresh culture medium (lacking drug) was added. Every three days, culture medium was changed and plates were examined for colony formation. To stain colonies, plates were fixed in 10% Acetone/10% Methanol solution for 10 min. Colonies were stained with 2% Crystal Violet for 30 minutes. The plates are then washed with water and allowed to air dry. Plates were imaged on GelCount and colonies were counted with Image J.

Structure (SMILES): CC(=O)O[C@@]12CO[C@@H]1C[C@H](O)[C@@]1(C)C(=O)[C@H](O)C3=C(C)[C@@H](OC(=O)[C@H](O)[C@@H](NC(=O)OC(C)(C)C)c4ccccc4)C[C@@](O)([C@@H](OC(=O)c4ccccc4)[C@H]21)C3(C)C [docetaxel]
- surviving fraction (relative resistance of sorted populations): significantly more resistant

Reference: patent US20190271703A1, “BIOMARKERS AND TREATMENTS FOR METASTATIC CANCER” (DUKE UNIVERSITY, priority 2016, published 2019)
